# Source: patent publication US12552825B2 (Zikani Therapeutics, Inc., priority 2019, dated 2026)
# Columns and labels:
# Format in all cases: cell-based
# E. coli MP-4 = assay: MIC determination by CLSI broth dilution, E. coli MP-4; conditions: Escherichia coli, MP4, CLSI broth dilution; strain MP-4
# K. pneumoniae MP-648 = assay: MIC determination by CLSI broth dilution, K. pneumoniae MP-648; conditions: Klebsiella pneumoniae, MP648, CLSI broth dilution; strain MP-648
# P. aeruginosa MP-3 = assay: MIC determination by CLSI broth dilution, P. aeruginosa MP-3; conditions: Pseudomonas aeruginosa, MP3, strain MP-3
# K. pneumoniae MP-546 = assay: MIC determination by CLSI broth dilution, K. pneumoniae MP-546; conditions: Klebsiella pneumoniae, MP546, CLSI broth dilution; strain MP-546
# S. aureus MP-12 = assay: microbe, parasite or virus in culture; conditions: Staphylococcus aureus, MP12, read-out: MIC S. aureus MP-12
# A. baumannii MP-15 = assay: MIC determination by CLSI broth dilution, A. baumannii MP-15; conditions: Acinetobacter baumannii, MP15, strain MP-15, read-out: MIC A. baumanii MP-15
SMILES,MIC (E. coli MP-4) [µg/mL],MIC (K. pneumoniae MP-648) [µg/mL],MIC (P. aeruginosa MP-3) [µg/mL],MIC (K. pneumoniae MP-546) [µg/mL],MIC (S. aureus MP-12) [µg/mL],MIC (A. baumannii MP-15) [µg/mL]
CO[C@]1(C)C[C@@H](C)CN(C)[C@H](CC2CCN(Cc3ccco3)CC2)COC(=O)C(C)(C)C(=O)[C@H](C)[C@H]1O[C@@H]1O[C@H](C)C[C@H](N(C)C)[C@H]1O [Compound 62],< 4,< 4,> 32,< 4,4 to 32,4 to 32
CO[C@]1(C)C[C@@H](C)CN(C)[C@H](CC2CCN(C3CC3)CC2)COC(=O)C(C)(C)C(=O)[C@H](C)[C@H]1O[C@@H]1O[C@H](C)C[C@H](N(C)C)[C@H]1O [Compound 63],< 4,4 to 32,> 32,< 4,4 to 32,> 32
CO[C@]1(C)C[C@@H](C)CN(C)[C@H](CC2CCN(C=O)CC2)COC(=O)C(C)(C)C(=O)[C@H](C)[C@H]1O[C@@H]1O[C@H](C)C[C@H](N(C)C)[C@H]1O [Compound 64],> 32,> 32,> 32,> 32,> 32,> 32
COC(CN1CCC(C[C@@H]2COC(=O)C(C)(C)C(=O)[C@H](C)[C@@H](O[C@@H]3O[C@H](C)C[C@H](N(C)C)[C@H]3O)[C@](C)(OC)C[C@@H](C)CN2C)CC1)OC [Compound 65],< 4,4 to 32,> 32,< 4,4 to 32,> 32
CO[C@]1(C)C[C@@H](C)CN(C)[C@@H](CC2CCN(CC3CC=CCC3)CC2)COC(=O)C(C)(C)C(=O)[C@H](C)[C@H]1O[C@@H]1O[C@H](C)C[C@H](N(C)C)[C@H]1O (stereo partly drawn) [Compound 73],< 4,4 to 32,> 32,< 4,4 to 32,> 32
CO[C@]1(C)C[C@@H](C)CN(C)[C@H](CC2CN(CC(C)C)C2)COC(=O)C(C)(C)C(=O)[C@H](C)[C@H]1O[C@@H]1O[C@H](C)C[C@H](N(C)C)[C@H]1O [Compound 74],> 32,> 32,> 32,> 32,> 32,> 32
CCCN1CCC(CC[C@@H]2COC(=O)C(C)(C)C(=O)[C@H](C)[C@@H](O[C@@H]3O[C@H](C)C[C@H](N(C)C)[C@H]3O)[C@](C)(OC)C[C@@H](C)CN2C)CC1 [Compound 75],4 to 32,> 32,> 32,> 32,> 32,> 32
CO[C@]1(C)C[C@@H](C)CN(C)[C@H](CCC2CCN(CC(C)C)CC2)COC(=O)C(C)(C)C(=O)[C@H](C)[C@H]1O[C@@H]1O[C@H](C)C[C@H](N(C)C)[C@H]1O [Compound 76],< 4,4 to 32,> 32,4 to 32,> 32,> 32
CO[C@H](CCN1CCCC1)[C@@H]1COC(=O)C(C)(C)C(=O)[C@H](C)[C@@H](O[C@@H]2O[C@H](C)C[C@H](N(C)C)[C@H]2O)[C@](C)(OC)C[C@@H](C)CN1C [Compound 77],< 4,< 4,> 32,< 4,4 to 32,> 32
"CO[C@]1(C)C[C@@H](C)CN(C)[C@H]([C@H](O)CCN2CCCC2)COC(=O)C(C)(C)C(=O)[C@H](C)[C@H]1O[C@@H]1O[C@H](C)C[C@H](N(C)C)[C@H]1O [Compound 78, (3S,6R,8R,9R,10R)-9-(((2S,3R,4S,6R)-4-(Dimethylamino)-3-hydroxy-6-methyltetrahydro-2H-pyran-2-yl)oxy)-3-((R)-1-hydroxy-3-(pyrrolidin-1-yl)propyl)-8-methoxy-4,6,8,10,12,12-hexamethyl-1-oxa-4-azacyclotridecane-11,13-dione]",< 4,< 4,> 32,< 4,< 4,> 32
CCCN1CC(C[C@H]2COC(=O)C(C)(C)C(=O)[C@H](C)[C@@H](O[C@@H]3O[C@H](C)C[C@H](N(C)C)[C@H]3O)[C@](C)(OC)C[C@@H](C)CN2C)C1 [Compound 79],4 to 32,> 32,> 32,> 32,> 32,> 32
"CO[C@]1(C)C[C@@H](C)CN(C)[C@H](CCCN2CCC(F)CC2)COC(=O)C(C)(C)C(=O)[C@H](C)[C@H]1O[C@@H]1O[C@H](C)C[C@H](N(C)C)[C@H]1O [Compound 85, (3R,6R,8R,9R,10R)-9-(((2S,3R,4S,6R)-4-(dimethylamino)-3-hydroxy-6-methyltetrahydro-2H-pyran-2-yl)oxy)-3-(3-(4-fluoropiperidin-1-yl)propyl)-8-methoxy-4,6,8,10,12,12-hexamethyl-1-oxa-4-azacyclotridecane-11,13-dione]",< 4,< 4,> 32,< 4,< 4,> 32
"CCN1C[C@H](C)C[C@@](C)(OC)[C@H](O[C@@H]2O[C@H](C)C[C@H](N(C)C)[C@H]2O)[C@@H](C)C(=O)C(C)(C)C(=O)OC[C@@H]1CCCN1CCCC1 [Compound 87, (3S,6R,8R,9R,10R)-9-(((2S,3R,4S,6R)-4-(dimethylamino)-3-hydroxy-6-methyltetrahydro-2H-pyran-2-yl)oxy)-4-ethyl-8-methoxy-6,8,10,12,12-pentamethyl-3-(3-(pyrrolidin-1-yl)propyl)-1-oxa-4-azacyclotridecane-11,13-dione]",< 4,< 4,> 32,< 4,< 4,> 32
"CCN1C[C@H](C)C[C@@](C)(OC)[C@H](O[C@@H]2O[C@H](C)C[C@H](N(C)C)[C@H]2O)[C@@H](C)C(=O)C(C)(C)C(=O)OC[C@H]1CCCN1CCC[C@@H]1C [Compound 88, (3R,6R,8R,9R,10R)-9-(((2S,3R,4S,6R)-4-(dimethylamino)-3-hydroxy-6-methyltetrahydro-2H-pyran-2-yl)oxy)-4-ethyl-8-methoxy-6,8,10,12,12-pentamethyl-3-(3-((S)-2-methylpyrrolidin-1-yl)propyl)-1-oxa-4-azacyclotridecane-11,13-dione]",< 4,< 4,> 32,< 4,4 to 32,> 32
"CO[C@]1(C)C[C@@H](C)CN(C)[C@@H](CCCN(C)C2CC2)COC(=O)C(C)(C)C(=O)[C@H](C)[C@H]1O[C@@H]1O[C@H](C)C[C@H](N(C)C)[C@H]1O [Compound 90, (3S,6R,8R,9R,10R)-3-(3-(cyclopropyl(methyl)amino)propyl)-9-(((2S,3R,4S,6R)-4-(dimethylamino)-3-hydroxy-6-methyltetrahydro-2H-pyran-2-yl)oxy)-8-methoxy-4,6,8,10,12,12-hexamethyl-1-oxa-4-azacyclotridecane-11,13-dione]",< 4,4 to 32,> 32,< 4,4 to 32,> 32
"CO[C@]1(C)C[C@@H](C)CN(C)[C@@H](CCCN2CCC(O)CC2)COC(=O)C(C)(C)C(=O)[C@H](C)[C@H]1O[C@@H]1O[C@H](C)C[C@H](N(C)C)[C@H]1O [Compound 92, (3S,6R,8R,9R,10R)-9-(((2S,3R,4S,6R)-4-(dimethylamino)-3-hydroxy-6-methyltetrahydro-2H-pyran-2-yl)oxy)-3-(3-(4-hydroxypiperidin-1-yl)propyl)-8-methoxy-4,6,8,10,12,12-hexamethyl-1-oxa-4-azacyclotridecane-11,13-dione]",< 4,4 to 32,> 32,4 to 32,> 32,> 32
"CO[C@]1(C)C[C@@H](C)CN(C)[C@H](CCCN2CCCCC2)COC(=O)C(C)(C)C(=O)[C@H](C)[C@H]1O[C@@H]1O[C@H](C)C[C@H](N(C)C)[C@H]1O [Compound 93, (3R,6R,8R,9R,10R)-9-(((2S,3R,4S,6R)-4-(dimethylamino)-3-hydroxy-6-methyltetrahydro-2H-pyran-2-yl)oxy)-8-methoxy-4,6,8,10,12,12-hexamethyl-3-(3-(piperidin-1-yl)propyl)-1-oxa-4-azacyclotridecane-11,13-dione]",< 4,< 4,> 32,< 4,4 to 32,> 32
"CCCN1C[C@H](C)C[C@@](C)(OC)[C@H](O[C@@H]2O[C@H](C)C[C@H](N(C)C)[C@H]2O)[C@@H](C)C(=O)C(C)(C)C(=O)OC[C@H]1CC1CCN(C)CC1 [Compound 95, (3R,6R,8R,9R,10R)-9-(((2S,3R,4S,6R)-4-(dimethylamino)-3-hydroxy-6-methyltetrahydro-2H-pyran-2-yl)oxy)-8-methoxy-6,8,10,12,12-pentamethyl-3-((1-methylpiperidin-4-yl)methyl)-4-propyl-1-oxa-4-azacyclotridecane-11,13-dione]",< 4,< 4,> 32,< 4,4 to 32,4 to 32
"CCCN1CCC(C[C@@H]2COC(=O)C(C)(C)C(=O)[C@H](C)[C@@H](O[C@@H]3O[C@H](C)C[C@H](N(C)C)[C@H]3O)[C@](C)(OC)C[C@@H](C)CN2CCC)CC1 [Compound 96, (3R,6R,8R,9R,10R)-9-(((2S,3R,4S,6R)-4-(dimethylamino)-3-hydroxy-6-methyltetrahydro-2H-pyran-2-yl)oxy)-8-methoxy-6,8,10,12,12-pentamethyl-4-propyl-3-((1-propylpiperidin-4-yl)methyl)-1-oxa-4-azacyclotridecane-11,13-dione]",< 4,4 to 32,> 32,< 4,4 to 32,> 32
